How the values were obtained:
[1] = type: physicochemical
Text: The invention will now be described with reference to some non-limiting specific embodiments. The invention will first be illustrated in reference to the attached drawings to be followed by a more detailed description below. Turning to FIG. 1, there are shown two different phase diagrams (1A and 1B) of ternary systems comprising oil/water/surfactant according to the prior art. Such a ternary system forms microemulsions. As a function of the relative amounts of each of the three components one may achieve a two-phase or a mono-phase liquid concentrate comprising of the microemulsion where the boundaries of the stable phases depend on the relative concentration of each component. […] A two-phase region at equilibrium, at 35, prevails at all other concentrations of the ternary system. […] A one phase stable isotropic region exists at 65. Turning to FIG. 2, a general ternary phase diagram 80 describing the nano-sized self-assembled structured concentrates of the present invention, A rather small two-phase concentrate region 90 and a large stable one-phase at 100 region are present. A micellar concentrate of the nano-sized self-assembled structures exists at 110, i.e. there is no aqueous phase. Adding a small amount of aqueous phase results in an oil continuous phase, which is actually water in oil (W/O) region at 120A, 120B and 120C along the tree dilution lines. Addition of an increasing amount of aqueous solution results in a bi-continuous region at 130A, 130B and 130C along the three dilution lines. At the point where the amount of aqueous solution is greater than that of the oil phase there exists an aqueous continuous phase, which is actually an oil in water (O/W) region generally at 140A, 140B and 140C along the three dilution lines. Direct micelles exist only at the extreme at 150. It should be noted that along each concentration line as the concentration of the surfactant increases, the oil continuous phase may decrease is size while the bicontinuous and water continuous phases may increase in size. Turning to FIG. 3, a ternary phase diagram 170 describing another nanosized-structured concentrate of the present invention is shown. The oil phase, which is the desired solvent for achieving a single-phase system, is α-tocopherol acetate. The aqueous system comprises of water and a co-solvent—propylene glycol. As shown, a major portion of the four-component system is in one stable region 180, while only a minor portion 190 is a two-phase system. Phase diagrams, solubilization factors and efficiency of solubilization for lycopene, phytosterol and lutein in ternary systems according to lo the present invention are given in FIGS. 4–6. […] It should be noted that the ratio between each of the components of the oil phase to the surfactant is 1:3. […] As shown, upon further dilution with water, tie solubilization of lycopene drops over the dilution factor. In case the system is diluted from 67% water to 80% water, the dilution factor (from inversion) is 80/67=1.19. The solubilization on the other hand decreases by a factor of 450/312.5=1.44. This indicates structural change in the nano-sized self-assembled concentrates. Turning to FIG. 4C, the efficiency of the solubilization in the described system is represented (α). The efficiency factor, α, is defined as lycopene/oil(wt/wt)X 100. As shown, the maximum solubilization on an oil base is 0.8 wt %. […] Tuming to FIG. 4D, there is shown the solubilization capacity of the lycopene as a function of the nature of the surfactant system. As shown, for the case where the surfactant is Tween 60, the efficiency factor (solubilization based on the oil phase) is 0.8 wt %. However, this value is increased to 1.05, 1.1, 1.1 and 1.16 (wt %) for the cases where the surfactant is ethoxylated monoglycerides (EM), triglycerol monooleate (TM), sugar ester (SE), and a mixture of SE+EM, respectively. It should be noted that such efficiency factors are equivalent to a solubilization factor of up to 25 fold. […]

[2] = Solubility of lycopene in oil (oil dissolution capacity); type: physicochemical
Text: The invention will now be described with reference to some non-limiting specific embodiments. The invention will first be illustrated in reference to the attached drawings to be followed by a more detailed description below. Turning to FIG. 1, there are shown two different phase diagrams (1A and 1B) of ternary systems comprising oil/water/surfactant according to the prior art. Such a ternary system forms microemulsions. As a function of the relative amounts of each of the three components one may achieve a two-phase or a mono-phase liquid concentrate comprising of the microemulsion where the boundaries of the stable phases depend on the relative concentration of each component. […] A two-phase region at equilibrium, at 35, prevails at all other concentrations of the ternary system. […] A one phase stable isotropic region exists at 65. Turning to FIG. 2, a general ternary phase diagram 80 describing the nano-sized self-assembled structured concentrates of the present invention, A rather small two-phase concentrate region 90 and a large stable one-phase at 100 region are present. A micellar concentrate of the nano-sized self-assembled structures exists at 110, i.e. there is no aqueous phase. Adding a small amount of aqueous phase results in an oil continuous phase, which is actually water in oil (W/O) region at 120A, 120B and 120C along the tree dilution lines. […]

Q: Which “Concentration (%) of free lutein” value [1] does the source give for `CC1=C[C@H](O)CC(C)(C)[C@H]1/C=C/C(C)=C/C=C/C(C)=C/C=C/C=C(C)/C=C/C=C(C)/C=C/C1=C(C)C[C@@H](O)CC1(C)C` [free lutein] here?
A: 0.006%

Q: With `CC1=C[C@H](O)CC(C)(C)[C@H]1/C=C/C(C)=C/C=C/C(C)=C/C=C/C=C(C)/C=C/C=C(C)/C=C/C1=C(C)C[C@@H](O)CC1(C)C` [lutein] as the molecule, how does the “Aqueous solution concentration at which maximum solubilization occurs (bi continuous region)” value [1] read?
A: 40 to 60%

Q: What about the “Increase of solubilization capacity over aqueous or oil phase alone or with surfactant” value (“Increase of solubilization capacity” for short) [1] of the same molecule?
A: 7-20 fold

Q: What about the “Solubilization in the oil in water (O/W) region” value [1] of the same molecule?
A: limited solubilization

Q: Which “Solubility of lycopene in oil” value [2] does the source give for `CC(C)=CCC/C(C)=C/C=C/C(C)=C/C=C/C(C)=C/C=C/C=C(C)/C=C/C=C(C)/C=C/C=C(\C)CCC=C(C)C` [lycopene] here?
A: ca. 0.045 wt %

Q: And the “Concentration (%) of lycopene” value [1]?
A: 0.02%

Q: What about the “Efficiency factor α, lycopene/oil (wt/wt) x 100, maximum solubilization on an oil base” value [1] of the same molecule?
A: 0.8 wt %

Q: And the “Factor of decrease of solubilization on dilution” value [1]?
A: 1.44

Q: And the “Increase of solubilization capacity” value [1]?
A: 7-20 fold

Q: And the “Maximum solubility (solubility capacity) in 1 Kg of nano-sized self-assembled structured concentrate” value [1]?
A: 450 mg

Q: What about the Maximum solubilization [1] of the same molecule?
A: 0.45 % (wt)

Q: What about the “Solubility capacity in 1 Kg of concentrate after dilution” value [1] of the same molecule?
A: 312.5 mg

Q: What about the Solubilization factor [1] of the same molecule?
A: up to 25 fold

Q: And the “Solubilization relative to the oil dissolution capacity” value [1]?
A: up to 17.7 fold

Q: Which “Concentration (%) of lutein ester” value [1] does the source give for lutein ester here?
A: 0.047%

Q: For phytosterol, which “Concentration (%) of phytosterol” value [1] is on record?
A: 1.0%

Q: And the “Efficiency factor α, phytosterol/oil (wt/wt) x 100, maximum solubilization on an oil base” value [1]?
A: 16.7 wt %

Q: And the “Increase of solubilization capacity” value [1]?
A: 7-20 fold

Q: What about the Maximum solubilization [1] of the same molecule?
A: 1.65 % (wt)

Q: What about the “Maximum solubilization in 1 Kg of nano-sized self-assembled structured concentrate” value [1] of the same molecule?
A: 165 mg

Q: And the “Solubilization decrease factor on dilution” value [1]?
A: 3.6

Q: And the Solubilization factors [1]?
A: 6, 7

Q: What about the “Solubilization in 1 Kg of concentrate after dilution” value [1] of the same molecule?
A: 45 mg
